Source: patent US10781181B2, “N-((het) arylmethyl)-heteroaryl-carboxamides compounds as plasma kallikrein inhibitors” (Kalvista Pharmaceuticals Limited, priority 2014, dated 2020)
Like-named read-outs stand apart in the source and are kept apart here.

Columns and labels:
Type in all cases: biochemical
Human plasma kallikrein = Human plasma kallikrein (Homo sapiens (Human), UniProt P03952); experiment: Determination of the IC50 for plasma kallikrein; settings: read-out: IC50 (human PKal)
Protocol: Determination of the IC50 for Plasma Kallikrein
(§1) Human plasma kallikrein (Protogen) was incubated at 25° C. with the fluorogenic substrate H-DPro-Phe-Arg-AFC and various concentrations of the test compound. Residual enzyme activity (initial rate of reaction) was determined by measuring the change in […] at 410 nm and the IC50 value for the test compound was determined.

Human KLK1 = Human KLK1 (Homo sapiens (Human), UniProt P06870); experiment: Determination of the IC50 for KLK1; settings: human KLK1, 25° C., substrate H-DVal-Leu-Arg-AFC
Chain of Human KLK1 (P06870 25-262): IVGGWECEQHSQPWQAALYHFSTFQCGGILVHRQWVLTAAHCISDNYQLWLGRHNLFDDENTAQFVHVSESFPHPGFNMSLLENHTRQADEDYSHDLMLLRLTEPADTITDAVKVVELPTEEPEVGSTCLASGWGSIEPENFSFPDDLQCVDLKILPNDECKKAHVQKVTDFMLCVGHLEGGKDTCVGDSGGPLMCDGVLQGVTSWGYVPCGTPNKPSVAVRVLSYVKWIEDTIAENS
Protocol: Determination of the IC50 for KLK1
as §1, with “KLK1 (Callbiochem)” for “plasma kallikrein (Protogen)”, “H-DVal-Leu-Arg-AFC” for “H-DPro-Phe-Arg-AFC”

Human FXIa = Human FXIa (Homo sapiens (Human), UniProt P03951); experiment: Determination of the % inhibition for FXIa; settings: read-out: % Inhibition @ 40 μM (human FXIa)
Chain of Human FXIa (P03951 388-625 limits assumed): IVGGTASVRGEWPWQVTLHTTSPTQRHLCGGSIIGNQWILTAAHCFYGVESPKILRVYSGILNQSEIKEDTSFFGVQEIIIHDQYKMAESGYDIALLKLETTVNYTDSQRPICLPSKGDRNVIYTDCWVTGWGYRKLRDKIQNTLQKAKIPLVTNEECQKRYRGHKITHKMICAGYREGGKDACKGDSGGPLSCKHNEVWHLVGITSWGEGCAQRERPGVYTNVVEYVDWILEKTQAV
Chain of Human FXIa (P03951 19-387 partner limits assumed): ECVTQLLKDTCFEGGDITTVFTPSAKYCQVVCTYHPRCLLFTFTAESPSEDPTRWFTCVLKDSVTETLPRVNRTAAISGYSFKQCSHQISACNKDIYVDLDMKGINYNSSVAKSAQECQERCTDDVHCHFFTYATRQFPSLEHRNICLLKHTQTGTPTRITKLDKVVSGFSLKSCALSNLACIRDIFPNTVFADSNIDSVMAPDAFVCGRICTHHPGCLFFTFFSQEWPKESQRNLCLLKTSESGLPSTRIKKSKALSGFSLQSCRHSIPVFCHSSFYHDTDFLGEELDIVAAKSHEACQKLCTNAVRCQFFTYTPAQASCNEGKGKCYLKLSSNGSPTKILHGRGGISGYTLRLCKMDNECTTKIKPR
Protocol: Determination of the % Inhibition for FXIa
Human FXIa (Enzyme Research Laboratories) was incubated at 25° C. with the fluorogenic substrate Z-Gly-Pro-Arg-AFC and 40 μM of the test compound. Residual enzyme activity (initial rate of reaction) was determined by measuring the change in […].

[1] = 40 μM of the test compound, human FXIa, 25° C.

Chain of Human plasma kallikrein (P03952 391-638): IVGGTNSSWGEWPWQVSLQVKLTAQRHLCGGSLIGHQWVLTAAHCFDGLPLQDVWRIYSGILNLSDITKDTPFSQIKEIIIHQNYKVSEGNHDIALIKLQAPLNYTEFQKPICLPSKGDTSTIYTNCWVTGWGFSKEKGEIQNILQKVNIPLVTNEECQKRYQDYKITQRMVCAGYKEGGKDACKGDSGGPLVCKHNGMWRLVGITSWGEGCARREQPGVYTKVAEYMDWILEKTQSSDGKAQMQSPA
Chain of Human plasma kallikrein (P03952 20-390 partner): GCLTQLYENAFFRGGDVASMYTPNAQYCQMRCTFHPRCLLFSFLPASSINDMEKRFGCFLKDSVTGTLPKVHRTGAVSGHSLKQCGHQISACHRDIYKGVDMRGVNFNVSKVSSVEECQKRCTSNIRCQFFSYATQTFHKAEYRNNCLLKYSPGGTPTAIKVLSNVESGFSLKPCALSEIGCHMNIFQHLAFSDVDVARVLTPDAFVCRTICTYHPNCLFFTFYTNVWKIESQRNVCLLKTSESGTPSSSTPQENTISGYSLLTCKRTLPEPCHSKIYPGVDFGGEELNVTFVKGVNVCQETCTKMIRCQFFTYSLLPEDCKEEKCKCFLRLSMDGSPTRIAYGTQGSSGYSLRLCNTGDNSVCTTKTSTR

| Compound | IC50 (Human plasma kallikrein) [µM] | IC50 (Human KLK1) [µM] | inhibition at 40 µM (Human FXIa; [1]) [%] | inhibition at 40 µM (Human FXIa) [%] |
| --- | --- | --- | --- | --- |
| Cc1ccc(Cl)cc1OCCNC(=O)c1cn(Cc2ccc(Cn3ccccc3=O)cc2)nc1N [Example 14, 3-amino-N-[2-(5-chloro-2-methylphenoxy)ethyl]-1-({4-[(2-oxopyridin-1-yl)methyl]phenyl}methyl)pyrazole-4-carboxamide] | 0.161 | > 40 | 0 |  |
| O=C(NCCOc1cccc(Cl)c1)c1cn(Cc2ccc(Cn3ccccc3=O)cc2)nc1C1CC1 [Example 5, N-[2-(3-chlorophenoxy)ethyl]-3-cyclopropyl-1-({4-[(2-oxopyridin-1-yl)methyl]phenyl}methyl)pyrazole-4-carboxamide] | 0.0684 | > 10 | 0 |  |
| Cc1ccc2cc(Cn3cc(C(=O)NCCOc4cccc(Cl)c4)c(N)n3)ccc2n1 [Example 54, 3-amino-N-[2-(3-chlorophenoxy)ethyl]-1-[(2-methylquinolin-6-yl)methyl]pyrazole-4-carboxamide] | 0.245 | > 40 | 67 |  |
| Nc1nn(Cc2ccc(Cn3ccccc3=O)cc2)cc1C(=O)NCCOc1cccc(Cl)c1 [Example 1] | 0.0029 | > 10 | 2 |  |
| Nc1nn(Cc2cccc(Br)c2)cc1C(=O)NCCOc1cccc(Cl)c1 [Example 56, 3-amino-1-[(3-bromophenyl)methyl]-N-[2-(3-chlorophenoxy)ethyl]pyrazole-4-carboxamide] | 8.49 | > 40 |  | 0 |
| Nc1nn(Cc2ccc(Cn3ccccc3=O)cc2)cc1C(=O)NCCOc1cncc(Cl)c1 [Example 18, 3-amino-N-{2-[(5-chloropyridin-3-yl)oxy]ethyl}-1-({4-[(2-oxopyridin-1-yl)methyl]phenyl}methyl)pyrazole-4-carboxamide] | 2.01 | > 40 | 0 |  |
| Nc1nn(Cc2ccc(Cn3ccccc3=O)cc2)cc1C(=O)N[C@@H]1CCN(c2cccc(Cl)c2)C1 [Example 106, 3-amino-N-[(3R)-1-(3-chlorophenyl)pyrrolidin-3-yl]-1-({4-[(2-oxopyridin-1-yl)methyl]phenyl}methyl)pyrazole-4-carboxamide] | 0.684 | > 40 | 4 |  |
| CNC(=O)c1ccc(Cn2cc(C(=O)NCCOc3cccc(Cl)c3)c(N)n2)cc1 [Example 61, 3-amino-N-[2-(3-chlorophenoxy)ethyl]-1-{[4-(methylcarbamoyl)phenyl]methyl}pyrazole-4-carboxamide] | 7.25 | > 40 | 0 |  |
| Nc1nn(Cc2ccc(Cn3ccccc3=O)cc2)cc1C(=O)NCC(=O)Nc1ccccc1Cl [Example 3, 2-{[3-amino-1-({4-[(2-oxopyridin-1-yl)methyl]phenyl}methyl)pyrazol-4-yl]formamido}-N-(2-chlorophenyl)acetamide] | 5.53 | > 10 | 0 |  |
| Nc1nn(Cc2nc(-c3ccccc3)no2)cc1C(=O)NCCOc1cccc(Cl)c1 [Example 80, 3-amino-N-[2-(3-chlorophenoxy)ethyl]-1-[(3-phenyl-1,2,4-oxadiazol-5-yl)methyl]pyrazole-4-carboxamide] | 6.33 | > 40 | 0 |  |
| COCc1nn(Cc2ccc(Cn3ccccc3=O)cc2)cc1C(=O)NCCOc1cc(Cl)ccc1F [Example 9, N-[2-(5-chloro-2-fluorophenoxy)ethyl]-3-(methoxymethyl)-1-({4-[(2-oxopyridin-1-yl)methyl]phenyl}methyl)pyrazole-4-carboxamide] | 0.191 | > 10 | 0 |  |
| Nc1nn(Cc2ccc(Cn3ccccc3=O)cc2)cc1C(=O)NCC(=O)Nc1cccc(Cl)c1 [Example 2] | 0.0602 | > 10 | 0 |  |
